This assay deals with P388 leukemia ip, CD2F1 mice, survival T/C. Nature of the assay: NCI In Vivo Anticancer Drug Screen. Data for tumor model P388 Leukemia (intraperitoneal) in CD2F1 (CDF1) mice. Conditions: endpoint: median survival time, higher = longer survival. Put shortly:
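Mice carrying the transplanted tumor received test compound or vehicle. Survival was recorded in each group, and the value is the treated-group measurement divided by that of the vehicle-treated control group.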

[1] abbreviates: dose: 12.5 mg/kg/injection, schedule: Q01DX005 (ip), vehicle: saline with Tween-80.
The mark [2] stands for this setting: dose: 25.0 mg/kg/injection, schedule: Q01DX005 (ip), vehicle: saline with Tween-80.
The mark [3] stands for this setting: dose: 50.0 mg/kg/injection, schedule: Q01DX009 (ip), vehicle: saline with Tween-80.
[4] abbreviates: dose: 100.0 mg/kg/injection, schedule: Q01DX009 (ip), vehicle: saline with Tween-80.
The mark [5] stands for this setting: dose: 200.0 mg/kg/injection, schedule: Q01DX009 (ip), vehicle: saline with Tween-80.
[6] abbreviates: dose: 50.0 mg/kg/injection, schedule: Q01DX005 (ip), vehicle: saline with Tween-80.
The mark [7] stands for this setting: dose: 50.0 mg/kg/injection, schedule: Q01DX009 (ip), vehicle: Klucel (hydroxypropylcellulose) (HPC).
Setting [8] is: dose: 100.0 mg/kg/injection, schedule: Q01DX009 (ip), vehicle: Klucel (hydroxypropylcellulose) (HPC).
[9] abbreviates: dose: 200.0 mg/kg/injection, schedule: Q01DX009 (ip), vehicle: Klucel (hydroxypropylcellulose) (HPC).
Where [10] appears, read: dose: 100.0 mg/kg/injection, schedule: Q01DX005 (ip), vehicle: saline with Tween-80.
The mark [11] stands for this setting: dose: 200.0 mg/kg/injection, schedule: Q01DX005 (ip), vehicle: saline with Tween-80.
Where [12] appears, read: dose: 50.0 mg/kg/injection, schedule: Q04DX003 (ip), vehicle: saline with Tween-80.
[13] abbreviates: dose: 100.0 mg/kg/injection, schedule: Q04DX003 (ip), vehicle: saline with Tween-80.
The mark [14] stands for this setting: dose: 25.0 mg/kg/injection, schedule: Q01DX009 (ip), vehicle: saline with Tween-80.

This is an account of results in PubChem BioAssay AID330 (DTP/NCI, 2004).

Several values for one entry are separate records, joined by “and”; a condition that tells them apart may be missing. Identical values can stand only once. Toxic doses and inconclusive results are not listed. Square brackets hold non-standard residues; d marks the D form. Peptide text beside a SMILES is read from it. * marks the point of attachment. ξ: configuration not given here. Cbz = O=C(OCc1ccccc1)*; ξL = CC(C)CC(N)C(=O)O; OBn = c1ccc(CO*)cc1

For `[Cu+].[NH-]CCCN=Cc1ccccc1O`, the T/C (dose: 25.0 mg/kg/injection, schedule: Q01DX001 (ip), vehicle: saline sonified) was 95 % of control and the T/C (dose: 50.0 mg/kg/injection, schedule: Q01DX001 (ip), vehicle: saline sonified) is 105 % of control.
As to `Cc1cc([N+](=O)[O-])cc(Cl)n1`, the T/C is 106 % of control (dose: 3.12 mg/kg/injection, schedule: Q01DX009 (ip), vehicle: Klucel (hydroxypropylcellulose) (HPC)); 99 % of control (dose: 6.25 mg/kg/injection, schedule: Q01DX009 (ip), vehicle: Klucel (hydroxypropylcellulose) (HPC)); 100 % of control (dose: 12.5 mg/kg/injection, schedule: Q01DX009 (ip), vehicle: Klucel (hydroxypropylcellulose) (HPC)); 106 % of control (dose: 25.0 mg/kg/injection, schedule: Q01DX009 (ip), vehicle: Klucel (hydroxypropylcellulose) (HPC)).
`CCOC(=O)c1n[nH]c(C)c1CC(N)c1ccccc1` (stereo unspecified): the T/C is, setting by setting: under setting [1], 100 % of control; under setting [2], 96 % of control.
On to `CCN(CC)c1cc(-c2ccccc2)oc(=O)c1Cl`, for which the T/C under setting [3] was 100 % of control, the T/C under setting [4] was 93 % of control and the T/C under setting [5] is 97 % of control.
Regarding `CC12CCC(OC3OC(CO)C(O)C(O)C3O)CC1CCC1C2CCC2(C)C(c3ccc(=O)oc3)CCC12O` (stereo unspecified), the T/C reads like this: (dose: 0.35 mg/kg/injection, schedule: Q01DX009 (ip), vehicle: saline) 96 % of control; (dose: 0.7 mg/kg/injection, schedule: Q01DX009 (ip), vehicle: saline) 102 % of control; (dose: 1.4 mg/kg/injection, schedule: Q01DX009 (ip), vehicle: saline) 100 % of control.
For `CCNCC1c2ccccc2-c2nc3ccccc3nc2-c2ccccc21`, the T/C (dose: 100.0 mg/kg/injection, schedule: Q04DX002 (ip), vehicle: saline with Tween-80) is 102 % of control and the T/C (dose: 200.0 mg/kg/injection, schedule: Q04DX002 (ip), vehicle: saline with Tween-80) was 98 % of control.
Turning to `COc1cccc2c1C(=O)c1c(O)c3c(c(O)c1C2=O)C[C@@](O)(C(C)=O)C[C@@H]3OC1CC(N2CCCCC2)C(O)C(C)O1` (stereo partly specified), the T/C reads like this: (dose: 1.56 mg/kg/injection, schedule: Q04DX003 (ip), vehicle: water) 111 % of control; (dose: 6.25 mg/kg/injection, schedule: Q04DX003 (ip), vehicle: distilled water + Tween-80) 191 % of control; (dose: 6.25 mg/kg/injection, schedule: Q04DX003 (ip), vehicle: water) 163 % of control; (dose: 12.5 mg/kg/injection, schedule: Q04DX003 (ip), vehicle: distilled water + Tween-80) 106 % of control; (dose: 12.5 mg/kg/injection, schedule: Q04DX003 (ip), vehicle: water) 111 % of control; (dose: 25.0 mg/kg/injection, schedule: Q04DX003 (ip), vehicle: distilled water + Tween-80) 99 % of control.
On to `NCCCNCCCNc1nc2nc(N)nc(N)c2nc1-c1ccc([N+](=O)[O-])cc1`, for which the T/C is, setting by setting: (dose: 6.25 mg/kg/injection, schedule: Q01DX005 (ip), vehicle: saline with Tween-80) 99 % of control; under setting [1], 101 % of control; under setting [2], 105 % of control; under setting [6], 97 % of control.
`COc1ccc(CCN2C(=O)CC(CC3=NCCc4cc(OC)c(OC)cc43)CC2=O)cc1OC`: the T/C is, setting by setting: (dose: 50.0 mg/kg/injection, schedule: Q01DX005 (ip), vehicle: saline) 103 % of control; (dose: 100.0 mg/kg/injection, schedule: Q01DX005 (ip), vehicle: saline) 95 % of control.
`CC(=O)C(F)(F)C(F)(F)C(F)(F)C(F)(F)C(C)=O`: the T/C is 99 % of control (dose: 60.0 mg/kg/injection, schedule: Q01DX005 (ip), vehicle: saline with Tween-80); 94 % of control (dose: 120.0 mg/kg/injection, schedule: Q01DX005 (ip), vehicle: saline with Tween-80); 103 % of control (dose: 240.0 mg/kg/injection, schedule: Q01DX005 (ip), vehicle: saline with Tween-80).
For `COc1cc2c(cc1O)C(=O)CCC2`, the T/C runs as follows: under setting [7], 102 % of control; under setting [8], 103 % of control; under setting [9], 104 % of control.
As to `CC(C)CC(NC(=O)OCc1ccccc1)C(=O)NCC(=O)NCC(=O)OCc1ccccc1` (stereo not drawn) (Cbz-[ξL]-Gly-Gly-OBn), the T/C by setting is: under setting [6], 105 % of control; under setting [10], 105 % of control; under setting [11], 102 % of control.
`O=S1(=O)NC(=NC2CCCCC2)c2ccccc21`: the T/C is, setting by setting: under setting [6], 105 % of control; under setting [10], 105 % of control; under setting [11], 99 % of control.
On to `Nc1ccc(C(=O)Nc2ccc(C(=O)Nc3ccc(/C=C/c4ccc(NC(=O)c5ccc(N)cc5)cc4S(=O)(=O)O)c(S(=O)(=O)O)c3)cc2)cc1`, for which the T/C runs as follows: (dose: 50.0 mg/kg/injection, schedule: Q01DX009 (ip), vehicle: saline) 99 % of control; (dose: 100.0 mg/kg/injection, schedule: Q01DX009 (ip), vehicle: saline) 113 % of control; (dose: 200.0 mg/kg/injection, schedule: Q01DX009 (ip), vehicle: saline) 100 % of control.
For `c1cc2c3c(c1)nc(CCCc1nc4cccc5c4n1CCC5)n3CCC2`, the T/C reads like this: (dose: 25.0 mg/kg/injection, schedule: Q04DX003 (ip), vehicle: saline with Tween-80) 95 % of control; under setting [12], 86 % of control; under setting [13], 90 % of control.
On to `Cc1ccc(CNc2ccc([N+](=O)[O-])cc2)cc1`, for which the T/C was 100 % of control under setting [12]; 100 % of control under setting [13]; 95 % of control (dose: 200.0 mg/kg/injection, schedule: Q04DX003 (ip), vehicle: saline with Tween-80).
Regarding `CSC(=S)n1nc(C)c(N=Nc2cccc(Cl)c2Cl)c1C`, the T/C is 88 % of control under setting [6], 88 % of control under setting [10] and 89 % of control under setting [11].
Regarding `O=C(Oc1ccccc1)OC1CCN(C(=O)Oc2ccccc2)CC1`, the T/C (dose: 50.0 mg/kg/injection, schedule: Q01DX001 (ip), vehicle: Klucel (hydroxypropylcellulose) (HPC)) was 100 % of control; the T/C (dose: 100.0 mg/kg/injection, schedule: Q01DX001 (ip), vehicle: Klucel (hydroxypropylcellulose) (HPC)) is 102 % of control; the T/C (dose: 200.0 mg/kg/injection, schedule: Q01DX001 (ip), vehicle: Klucel (hydroxypropylcellulose) (HPC)) was 100 % of control; the T/C (dose: 400.0 mg/kg/injection, schedule: Q01DX001 (ip), vehicle: Klucel (hydroxypropylcellulose) (HPC)) is 100 % of control.
Take `O=C(CC(=O)C(F)(F)F)c1ccc(-c2ccccc2)cc1`: the T/C under setting [14] is 110 % of control, the T/C under setting [3] was 116 % of control and the T/C under setting [4] was 111 % of control.
In the case of `C[n+]1ccc(-c2cc[n+](C)cc2)cc1`, the T/C reads like this: (dose: 0.39 mg/kg/injection, schedule: Q01DX009 (ip), vehicle: saline) 98 % of control; (dose: 0.78 mg/kg/injection, schedule: Q01DX009 (ip), vehicle: saline) 109 % of control; (dose: 1.56 mg/kg/injection, schedule: Q01DX009 (ip), vehicle: saline) 103 % of control and 109 % of control; (dose: 3.12 mg/kg/injection, schedule: Q01DX009 (ip), vehicle: saline) 100 % of control and 89 % of control; (dose: 6.25 mg/kg/injection, schedule: Q01DX009 (ip), vehicle: saline) 87 % of control.
As to `O=C(C#Cc1ccccc1)c1ccccc1`, the T/C (dose: 12.5 mg/kg/injection, schedule: Q01DX009 (ip), vehicle: saline with Tween-80) was 122 % of control and 124 % of control; the T/C under setting [14] is 98 % of control; the T/C under setting [3] is 121 % of control.
Regarding `CC(=O)OCC1OC(Sc2nnc(-c3ccccc3)c(-c3ccccc3)n2)C(OC(C)=O)C(OC(C)=O)C1OC(C)=O` (stereo unspecified), the T/C is 107 % of control under setting [3], 98 % of control under setting [4] and 100 % of control under setting [5].
Turning to `CC(=O)Oc1cc2c(c(OC(C)=O)n1)C(C)N(Cc1ccccc1)C2=O` (stereo unspecified), the T/C under setting [7] was 106 % of control, the T/C under setting [8] is 106 % of control and the T/C under setting [9] was 115 % of control.
Consider `CSC1=Nc2ccccc2SC(c2ccccc2)C1c1ccccc1` (stereo unspecified), for which the T/C runs as follows: (dose: 50.0 mg/kg/injection, schedule: Q01DX005 (ip), vehicle: Klucel (hydroxypropylcellulose) (HPC)) 99 % of control; (dose: 100.0 mg/kg/injection, schedule: Q01DX005 (ip), vehicle: Klucel (hydroxypropylcellulose) (HPC)) 95 % of control; (dose: 200.0 mg/kg/injection, schedule: Q01DX005 (ip), vehicle: Klucel (hydroxypropylcellulose) (HPC)) 96 % of control.
